Source: patent US6964983B2, “Compounds that modulate PPAR activity and methods for their preparation” (Warner-Lambert Company, LLC, priority 2002, dated 2005)

How the values were obtained:
hPPARβ = molecular target: T1, hPPARβ (Homo sapiens, UniProt Q03181); test: Transient transfection assay in HepG2 cells, Gal4-hPPARβ chimeric receptor, luciferase reporter; type: cell-based; conditions: Hep G2-hBeta EC50, 24 hours incubation; read-out: EC50β nM (Group)
T1 sequence (Q03181 171-441 limits assumed): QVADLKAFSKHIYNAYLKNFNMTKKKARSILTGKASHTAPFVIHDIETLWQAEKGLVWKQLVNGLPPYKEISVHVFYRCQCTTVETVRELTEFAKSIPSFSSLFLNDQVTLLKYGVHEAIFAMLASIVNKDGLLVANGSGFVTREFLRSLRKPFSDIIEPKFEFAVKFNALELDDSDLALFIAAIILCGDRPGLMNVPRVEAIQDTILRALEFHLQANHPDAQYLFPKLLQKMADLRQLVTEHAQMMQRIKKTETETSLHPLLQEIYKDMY
In short: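 HepG2 cells were transiently co-transfected with Gal4-hPPARα or Gal4-hPPARβ chimeras, a UAS-E1B luciferase reporter and a β-gal normalisation plasmid. After re-plating, cells were treated with compound at 50 pM–50 μM for 24 h at 37°C. EC50 values were derived from luciferase read-out normalised to β-gal.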

hPPARα = molecular target: T2, hPPARα (Homo sapiens, UniProt Q07869); test: Transient transfection assay in HepG2 cells, Gal4-hPPARα chimeric receptor, luciferase reporter; type: cell-based; conditions: Hep G2-hAlpha EC50, 24 hours incubation; read-out: EC50α nM (Group)
T2 sequence (Q07869 200-468 limits assumed): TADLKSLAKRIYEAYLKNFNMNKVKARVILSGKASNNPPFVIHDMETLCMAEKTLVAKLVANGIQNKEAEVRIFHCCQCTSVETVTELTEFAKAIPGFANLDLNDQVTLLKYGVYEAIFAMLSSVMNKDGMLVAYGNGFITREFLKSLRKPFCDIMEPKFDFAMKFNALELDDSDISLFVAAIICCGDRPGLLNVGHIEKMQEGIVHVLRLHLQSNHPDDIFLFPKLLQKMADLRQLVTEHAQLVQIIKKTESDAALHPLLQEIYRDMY
Method: 1. Test A. Transient Transfections Assay using the HepG2 Hepatoma Cell Line.
HepG2 cells were transiently transfected with an expression plasmids encoding hPPARα, hPPARβ or mPPARγ chimeric receptors and a reporter containing the yeast upstream activating sequence (UAS) upstream of the viral E1B promoter controlling a luciferase reporter gene. In addition, the plasmid pRSVβ-gal was used to control for transfection efficiency. HepG2 cells were grown in DMEM supplemented with 10% FBS and 1 μM non-essential amino acid. On the first day, cells were split into 100 mm dishes at 2.5×10^6/dish and incubated overnight at 37° C./5% CO2. On the second day the cells were transiently transfected with plasmid DNA encoding a chimeric receptor, the luciferase reporter gene; and β-gal. For each 100 mm dish, 15 μg of lucifease reporter (PG5E1b) DNA, 15 μg of Gal4-PPAR chimeric receptor DNA, and 1.5 μg of β-gal plasmid DNA were mixed with 1.4 ml of opti-MEM in the tube. 28 μl of LipoFectamine-2000 reagent was added to 1.4 ml of opti-MEM in the tube, and incubate for 5 min at RT. The diluted Lipofectamine-2000 reagent was combined with the DNA mixture, and incubate for 20 min at RT. After fresh medium was added to each 100 mm dish of cells, 2.8 ml of Lipofectamine2000-DNA mixture was added dropwise to the 100 mm dish containing 14 ml of medium, and incubate 37° C. overnight. On day three cells were trypsinized off the 100 mm dishes and re-plated on 96 well plates. Cells were plated at 2.5×10^4 cells per well in 150 μl of media and 50 μl of compound diluted by media was added. The test compound added were in the range from 50 μM to 50 pM. After addition of compounds, the plates were incubated at 37° C. for 24 hours. Subsequently cells were washed with once with 100 μl of PBS, lysed, and processed for measuring luciferase and β-gal activity using Dual-Light luciferase kit from Tropix ®, according to the manufacturer's recommendations, on an EG&G Bethold MicroLumat LB96P luminometer. EC50 values were obtained using the GraphPad Prism™ program.

hApoA1 transgenic mouse = test: Lipid concentrations in the hApoA1 transgenic mouse; type: in vivo; conditions: 30 mg/kg/day, oral gavage
Method: B. Effect of PPAR Modulators on Lipid and Human Apoprotein A1 Concentrations in the hApoA1 Transgenic Mouse
Mice, transgenic for human apoA1, were purchased from Jackson laboratories. All animals were allowed normal chow (Ralston-Purina) and water ad libitum in temperature controlled rooms, under a 12-h light, 12-h dark cycle beginning with lights on at 6 AM. During the treatment phase of the study the mice were dosed daily between 6 and 9 AM by oral gavage using a suspension vehicle of 1.5% carboxymethylcellulose plus 0.2 percent Tween-20 (CMC/Tween) containing the specified compounds. Control animals received vehicle alone. Vehicle volume represented 0.25 percent of body weight. Under anesthesia, tail blood was obtained weekly in the morning at the indicated days of study. At termination, tissue samples (liver, intestine, fat, and muscle) were taken to study effects on genes effecting lipid metabolism. Each of the compounds of the present invention that were tested effected a significant increase in HDL over the values observed for the control animals. […] For instance, Example 4 raised HDL-c 97% and lowered triglycerides 65% relative to the control population, Example 6 raised HDL-c 24% and lowered triglycerides 59% relative to the control population, and Example 3 raised HDL-c 9% and lowered triglycerides 70% relative to the control population.

[1] = test system: diabetic cynomolgus monkeys; test: Eight-week rising-dose treatment of diabetic (type II) cynomolgus monkeys; type: in vivo; conditions: for Exogenous Insulin Requirement / Leptin (plasma, ELISA): Diabetic Treated; for Diabetic Monkey Mean Body Weight: treated group (Txt)
Method: (§1) C. Effect of Compounds of the Invention on Insulin Resistant or Diabetic Cynomolgus Monkeys
(§2) Cynomolgus monkeys that were either insulin resistant or diabetic (type II) were treated for eight weeks with [5-Methoxy-2-methyl-4-(4′-trifluoromethyl-biphenyl-4-ylmethylsulfanyl)-phenoxy]-acetic acid in a rising dose fashion (0.1 to 1 mg/kg). Plasma was sampled bi-weekly and analyzed for glycemics and leptin. Body weight was also measured at various time points across the study. The diabetic monkey mean body weight data is presented in Table 2 and the insulin resistant monkey mean body weight data is presented in Table 3.
The amount of exogenous insulin the diabetic monkeys received to maintain proper glucose levels, the exogenous insulin requirement, is also presented in Table 4 as baseline values vs. 8-week treatment. […] A reduction in exogenous insulin requirements is a measure of improved insulin sensitivity and glucose control.

[2] = test system: insulin resistant cynomolgus monkeys; test: Eight-week rising-dose treatment of insulin resistant cynomolgus monkeys; type: in vivo; conditions: for Leptin (plasma, ELISA): Insulin Resistant Treated; for Insulin Resistant Monkey Mean Body Weight: treated group (Txt)
Method: as §1
as §2, with “3. […]” for “3.”

[3] = Post-Treatment (8-week treatment)
[4] = 2 wk, rising dose 0.1 to 1 mg/kg
[5] = 8 wk, rising dose 0.1 to 1 mg/kg

Cc1cc(SCc2ccc(-c3ccc(C(F)(F)F)cc3)cc2)ccc1OCC(=O)O [Example 3, [2-Methyl-4-(4′-trifluoromethyl-biphenyl-4-ylmethylsulfanyl)-phenoxy]-acetic acid]
EC50 (hPPARβ): < 300 nM | EC50 (hPPARα): 2000 to 5000 nM | lowered triglycerides relative to the control population (hApoA1 transgenic mouse): 70% | raised HDL-c relative to the control population (hApoA1 transgenic mouse): 9% | melting point: 140 to 141 °C

Cc1cc(SCc2ccc(-c3ccc(Cl)c(C(F)(F)F)c3)cc2)ccc1OCC(=O)O [Example 6, [4-(4′-Chloro-3′-trifluoromethyl-biphenyl-4-ylmethylsulfanyl)-2-methyl-phenoxy]-acetic acid]
lowered triglycerides relative to the control population (hApoA1 transgenic mouse): 59% | raised HDL-c relative to the control population (hApoA1 transgenic mouse): 24%

Cc1cc(SCc2ccc(-c3ccc(C(F)(F)F)cn3)cc2)c2c(c1OCC(=O)O)CCCO2 [Example 36, {6-Methyl-8-[4-(5-trifluoromethyl-pyridine-2-yl)-benzylsulfanyl]-chroman-5-yloxy}-acetic acid]
EC50 (hPPARβ): 2000 to 5000 nM | EC50 (hPPARα): < 300 nM | melting point: 156 to 157 °C

Cc1cc(SCc2ccc(OCc3ccc(F)cc3)cc2)ccc1OCC(=O)O [Example 57, {4-[4-(4-Fluoro-benzyloxy)-benzylsulfanyl]-2-methyl-phenoxy}-acetic acid]
EC50 (hPPARβ): 2000 to 5000 nM | EC50 (hPPARα): 1000 to 2000 nM | melting point: 154 to 155 °C

Cc1cc(SCc2ccc(OCc3cc(Cl)ccc3Cl)cc2)ccc1OCC(=O)O [Example 59]
EC50 (hPPARβ): 1000 to 2000 nM | EC50 (hPPARα): > 5000 nM | melting point: 101 to 103 °C

O=C(O)COc1ccc(SCc2ccc(OCc3ccc(Cl)cc3Cl)cc2)c2c1CCC2 [Example 62, {7-[4-(2,4-Dichloro-benzyloxy)-benzylsulfanyl]-indan-4-yloxy}-acetic acid]
EC50 (hPPARβ): 1000 to 2000 nM | EC50 (hPPARα): > 5000 nM | melting point: 149 to 150 °C

O=C(O)COc1ccc(SCc2ccc(OCc3ccc(Cl)c(C(F)(F)F)c3)cc2)c2c1CCC2 [Example 73, {7-[4-(4-Chloro-3-trifluoromethyl-benzyloxy)-benzylsulfanyl]-indan-4-yloxy}-acetic acid]
EC50 (hPPARβ): < 300 nM | EC50 (hPPARα): 2000 to 5000 nM | melting point: 151 to 152 °C

O=C(O)COc1ccc(SCc2ccc(OCc3ccc(F)c(C(F)(F)F)c3)cc2)c2c1CCC2 [Example 74, {7-[4-(4-Fluoro-3-trifluoromethyl-benzyloxy)-benzylsulfanyl]-indan-4-yloxy}-acetic acid]
EC50 (hPPARβ): < 300 nM | EC50 (hPPARα): 2000 to 5000 nM | melting point: 116 to 117 °C

O=C(O)COc1ccc(SCc2cccc(OCc3ccc(C(F)(F)F)cc3)c2)c2c1CCC2 [Example 79, {7-[3-(4-Trifluoromethyl-benzyloxy)-benzylsulfanyl]-indan-4-yloxy}-acetic acid]
EC50 (hPPARβ): 300 to 500 nM | EC50 (hPPARα): > 5000 nM | melting point: 145 to 146 °C

O=C(O)COc1ccc(SCc2ccccc2OCc2ccc(C(F)(F)F)cc2)c2c1CCC2 [Example 81, {7-[2-(4-Trifluoromethyl-benzyloxy)-benzylsulfanyl]-indan-4-yloxy}-acetic acid]
EC50 (hPPARβ): < 300 nM | EC50 (hPPARα): > 5000 nM | melting point: 150 to 152 °C

Cc1cc(SCc2ccc(-c3ccc(C(F)(F)F)cn3)cc2)c2c(c1OCC(=O)O)CCO2 [Example 92, {5-Methyl-7-[4-(5-trifluoromethyl-pyridin-2-yl)-benzylsulfanyl]-2,3-dihydro-benzofuran-4-yxoly}-acetic acid]
EC50 (hPPARβ): < 300 nM | EC50 (hPPARα): < 300 nM | melting point: 155 to 157 °C

O=C(O)COc1ccc(SCc2cc(-c3ccc(Cl)cc3)on2)c2c1CCC2 [Example 97, {7-[5-(4-Chloro-phenyl)-isoxazol-3-ylmethylsulfanyl]-indan-4-yloxy}-acetic acid]
EC50 (hPPARβ): 500 to 1000 nM | EC50 (hPPARα): > 5000 nM | melting point: 157 to 159 °C

COc1cc(OCC(=O)O)c(C)cc1SCc1ccc(-c2ccc(C(F)(F)F)cc2)cc1 [[5-Methoxy-2-methyl-4-(4′-trifluoromethyl-biphenyl-4-ylmethylsulfanyl)-phenoxy]-acetic acid]
Exogenous Insulin Requirement [1, 3]: 18 ± 4 u/day | Leptin (plasma, ELISA) [1, 3]: 10.89 ± 2.7 ng/mL | Exogenous Insulin Requirement ([1]; Pre-Treatment (baseline)): 66 ± 16 u/day | Leptin (plasma, ELISA) ([1]; Pre-Treatment (baseline)): 7.22 ± 0.93 ng/mL | effect on plasma leptin values ([1]; diabetic obese cynomolgus monkeys, treated vs control, baseline vs 8 weeks): lesser increase in plasma leptin values | Diabetic Monkey Mean Body Weight [1, 4]: 8.75 kg | Diabetic Monkey Mean Body Weight ([1]; 5 wk, rising dose 0.1 to 1 mg/kg): 8.37 kg | Diabetic Monkey Mean Body Weight ([1]; 7 wk, rising dose 0.1 to 1 mg/kg): 8.08 kg | Diabetic Monkey Mean Body Weight [1, 5]: 7.8 kg | Diabetic Monkey Mean Body Weight ([1]; Mean Baseline): 8.87 kg | Diabetic Monkey Mean Body Weight ([1]; −4 wk, before treatment): 8.91 kg | Diabetic Monkey Mean Body Weight ([1]; −7 wk, before treatment): 8.84 kg | Leptin (plasma, ELISA) [2, 3]: 5.73 ± 2.14 ng/mL | Leptin (plasma, ELISA) ([2]; Pre-Treatment (baseline)): 7.33 ± 1.16 ng/mL | effect on plasma leptin values ([2]; insulin resistant obese cynomolgus monkeys, treated vs control, baseline vs 8 weeks): lesser increase in plasma leptin values | Insulin Resistant Monkey Mean Body Weight [2, 4]: 5.26 kg | Insulin Resistant Monkey Mean Body Weight ([2]; 4 wk, rising dose 0.1 to 1 mg/kg): 5.04 kg | Insulin Resistant Monkey Mean Body Weight ([2]; 6 wk, rising dose 0.1 to 1 mg/kg): 4.91 kg | Insulin Resistant Monkey Mean Body Weight [2, 5]: 4.71 kg | Insulin Resistant Monkey Mean Body Weight ([2]; Mean Baseline): 5.29 kg | Insulin Resistant Monkey Mean Body Weight ([2]; −4 wk, before treatment): 5.32 kg | Insulin Resistant Monkey Mean Body Weight ([2]; −7 wk, before treatment): 5.25 kg
